Measurements: patent US20140057915A1, “KINASE INHIBITORS” (TOPIVERT PHARMA LIMITED, priority 2012, published 2014)

Experiments:
GSK3α = GSK3α (Homo sapiens, UniProt P49840); test: GSK 3α enzyme inhibition (FRET), Method 1; format: biochemical; details: Table 4a1
Summary of the method: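 GSK3α was preincubated with test compound for 2 hr at RT, then a FRET peptide substrate and ATP were added for 1 hr. Protease development for 1 hr cleaved only non-phosphorylated peptide, and phosphorylation was read as the coumarin/fluorescein emission ratio. Concentrations given are those of the added solutions: enzyme 500 ng/mL, peptide 8 μM, ATP 40 μM.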

[1] = tested on: TNFα release, d-U937 cells; test: LPS-induced TNFα release in d-U937 cells; format: cell-based; details: Homo sapiens, dU937; relative to 10 μg/mL BIRB796; Table 4c1; read-out: LPS Induced Release of Cytokine in d-U937 Cells, TNFα REC50
Summary of the method: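 U937 cells differentiated with PMA (100 ng/mL, 48–72 hr), pre-treated with compound for 2 hr, then stimulated with E. coli LPS (0.1 μg/mL) for 4 hr. Supernatant cytokine measured by sandwich ELISA; inhibition versus vehicle control, REC50 from concentration-response curve.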

[2] = tested on: IL-8 release, d-U937 cells; test: LPS-induced IL-8 release in d-U937 cells; format: cell-based; details: Homo sapiens, dU937; Table 4c1; read-out: LPS Induced Release of Cytokine in d-U937 Cells, IL-8 IC50
Summary of the method: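 IL-8 release after a 4 hr challenge with LPS (0.1 μg/mL, E. coli 0111:B4) following a 2 hr compound pretreatment. Cells were human U937 monocytes differentiated to macrophage-type with PMA 100 ng/mL for 48–72 hr. Relative 50% effective concentration derived from concentration–response data.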

cSrc = cSrc (Homo sapiens, UniProt P12931); test: c-Src enzyme inhibition (FRET); format: biochemical; details: Table 4a1
Sequence of cSrc (P12931 whole entry): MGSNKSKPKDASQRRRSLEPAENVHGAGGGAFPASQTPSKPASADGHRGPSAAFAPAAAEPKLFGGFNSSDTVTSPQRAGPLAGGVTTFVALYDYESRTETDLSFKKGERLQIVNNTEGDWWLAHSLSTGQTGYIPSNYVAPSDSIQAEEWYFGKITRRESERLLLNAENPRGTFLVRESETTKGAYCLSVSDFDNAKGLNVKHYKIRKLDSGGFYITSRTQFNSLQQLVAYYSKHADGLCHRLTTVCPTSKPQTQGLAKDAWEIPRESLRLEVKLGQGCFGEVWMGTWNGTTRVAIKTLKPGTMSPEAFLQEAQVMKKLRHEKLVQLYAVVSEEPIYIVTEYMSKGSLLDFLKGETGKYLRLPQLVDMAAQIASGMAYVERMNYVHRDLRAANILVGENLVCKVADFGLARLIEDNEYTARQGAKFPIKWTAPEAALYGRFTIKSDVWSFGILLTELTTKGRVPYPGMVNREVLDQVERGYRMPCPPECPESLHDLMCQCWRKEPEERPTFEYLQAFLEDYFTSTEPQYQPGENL
Summary of the method: (§1)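 2 hr RT enzyme + cpd (added solns 4/0.4/0.04/0.004 μg/mL); + FRET peptide (8 μM soln) + ATP soln (c-Src 800 μM, Syk 60 μM), 1 hr; protease development 1 hr; read donor/acceptor emission ratio.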

d-U937 cells = test: Cell viability: MTT assay; format: cell-based, human; details: 1 μg/mL
Summary of the method: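 Differentiated U937 cells exposed to compound at 1 or 10 μg/mL, either 4 h in 5% FCS or 24 h in 10% FCS RPMI1640. MTT then added for 1 h, formazan dissolved in DMSO and read at 550 nm. Viability loss given as % versus 0.5% DMSO vehicle; apparent gains appear negative.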

Syk = Syk (Homo sapiens, UniProt P43405); test: Syk enzyme inhibition (FRET); format: biochemical; details: Table 4a1
Summary of the method: as §1

[3] = tested on: ICAM-1 expression, BEAS2B cells; test: Poly I:C-induced ICAM-1 expression in BEAS2B cells; format: cell-based; details: Homo sapiens, BEAS-2B; read-out: Poly IC induced ICAM1 in BEAS2B, IC50
Summary of the method: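 BEAS2B human bronchial epithelial cells pre-incubated 2 h with compound, then transfected with poly I:C (1 μg/mL) plus Oligofectamine. After 18 h, cell-surface ICAM-1 read by cell-based ELISA (A450–655), normalised to Crystal Violet cell number (A595); inhibition calculated against vehicle control at each concentration.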

Sequence of GSK3α (P49840 whole entry): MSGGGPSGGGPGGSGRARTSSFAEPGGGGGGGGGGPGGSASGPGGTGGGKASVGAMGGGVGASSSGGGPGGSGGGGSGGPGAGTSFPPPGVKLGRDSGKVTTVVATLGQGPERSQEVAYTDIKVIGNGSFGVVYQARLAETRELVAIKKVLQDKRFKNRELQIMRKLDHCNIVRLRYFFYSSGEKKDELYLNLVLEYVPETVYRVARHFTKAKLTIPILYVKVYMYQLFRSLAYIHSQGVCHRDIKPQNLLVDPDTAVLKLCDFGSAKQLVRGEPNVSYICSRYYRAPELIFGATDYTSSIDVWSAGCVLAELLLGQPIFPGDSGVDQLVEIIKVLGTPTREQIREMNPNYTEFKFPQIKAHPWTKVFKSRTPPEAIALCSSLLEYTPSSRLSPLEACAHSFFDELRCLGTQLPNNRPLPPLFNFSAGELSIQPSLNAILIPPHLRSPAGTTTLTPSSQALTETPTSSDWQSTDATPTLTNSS

Row | Structure (SMILES) | IC50 (GSK3α) | EC50 [1] | IC50 [2] | IC50 (cSrc) | Cell viability at time point in d-U937 cells, 4 h (d-U937 cells) | Cell viability at time point in d-U937 cells, 24 h (d-U937 cells) | IC50 (Syk) | IC50 [3]
1 | COc1ccc(-n2nc(C(C)C)cc2NC(=O)Nc2ccc(Oc3ccnc(Nc4cc(OC)cc(C(=O)NCCN5CCOCC5)c4)c3)c3ccccc23)cc1 [Example 15, 3-((4-((4-(3-(3-isopropyl-1-(4-methoxyphenyl)-1H-pyrazol-5-yl)ureido)naphthalen-1-yl)oxy)pyridin-2-yl)amino)-5-methoxy-N-(2-morpholinoethyl)benzamide] | 3180 nM | 0.4 nM | 1.6 nM | 4 nM | −ve (−ve and +ve indicate that the value is below and above respectively, the no significant effect threshold, defined as 30% inhibition at 1 μg/mL at the time point indicated) | −ve (−ve and +ve indicate that the value is below and above respectively, the no significant effect threshold, defined as 30% inhibition at 1 μg/mL at the time point indicated) | 16 nM | 26.2 nM
2 | Cc1ccc(-n2nc(C(C)(C)C)cc2NC(=O)Nc2ccc(Oc3ccnc(Nc4cccc(C(=O)N5CCOCC5)c4)n3)c3ccccc23)cc1 [Example 27, 1-(3-(tert-butyl)-1-(p-tolyl)-1H-pyrazol-5-yl)-3-(4-((2-((3-(morpholine-4-carbonyl)phenyl)amino)pyrimidin-4-yl)oxy)naphthalen-1-yl)urea] | 311 nM | 1.4 nM | 4.1 nM | 4 nM | −ve (−ve and +ve indicate that the value is below and above respectively, the no significant effect threshold, defined as 30% inhibition at 1 μg/mL at the time point indicated) | −ve (−ve and +ve indicate that the value is below and above respectively, the no significant effect threshold, defined as 30% inhibition at 1 μg/mL at the time point indicated) | 39 nM | 11.6 nM
3 | COc1ccc(-n2nc(C(C)C)cc2NC(=O)Nc2ccc(Oc3ccnc(Nc4cc(C(=O)NCCN5CCOCC5)cc(C(F)(F)F)c4)n3)c3ccccc23)cc1 [Example 47, 3-((4-((4-(3-(3-isopropyl-1-(4-methoxyphenyl)-1H-pyrazol-5-yl)ureido)naphthalen-1-yl)oxy)pyrimidin-2-yl)amino)-N-(2-morpholinoethyl)-5-(trifluoromethyl)benzamide] | 2850 nM | 0.8 nM | 1.4 nM | 5 nM | −ve (−ve and +ve indicate that the value is below and above respectively, the no significant effect threshold, defined as 30% inhibition at 1 μg/mL at the time point indicated) | −ve (−ve and +ve indicate that the value is below and above respectively, the no significant effect threshold, defined as 30% inhibition at 1 μg/mL at the time point indicated) | 12 nM | 3.6 nM
4 | COc1cc(C(=O)NCCO)ccc1Nc1nccc(Oc2ccc(NC(=O)Nc3cc(C(C)C)nn3-c3ccc(C)cc3)c3ccccc23)n1 [Example 39, N-(2-hydroxyethyl)-4-((4-((4-(3-(3-isopropyl-1-(p-tolyl)-1H-pyrazol-5-yl)ureido)naphthalen-1-yl)oxy)pyrimidin-2-yl)amino)-3-methoxybenzamide] | > 14600 nM | 3.6 nM | 15.7 nM | 8 nM | −ve (−ve and +ve indicate that the value is below and above respectively, the no significant effect threshold, defined as 30% inhibition at 1 μg/mL at the time point indicated) | −ve (−ve and +ve indicate that the value is below and above respectively, the no significant effect threshold, defined as 30% inhibition at 1 μg/mL at the time point indicated) | 130 nM | 146 nM
5 | Cc1ccc(-n2nc(C(C)C)cc2NC(=O)Nc2ccc(Oc3ccnc(Nc4cc(Cl)cc(C(=O)NCCN5CCOCC5)c4)n3)c3ccccc23)cc1 [Example 60, 3-chloro-5-((4-((4-(3-(3-isopropyl-1-(p-tolyl)-1H-pyrazol-5-yl)ureido)naphthalen-1-yl)oxy)pyrimidin-2-yl)amino)-N-(2-morpholinoethyl)benzamide] | > 13200 nM | 1.1 nM | 3.9 nM | 13 nM | −ve (−ve and +ve indicate that the value is below and above respectively, the no significant effect threshold, defined as 30% inhibition at 1 μg/mL at the time point indicated) | −ve (−ve and +ve indicate that the value is below and above respectively, the no significant effect threshold, defined as 30% inhibition at 1 μg/mL at the time point indicated) | 60 nM | 132 nM
6 | COc1ccc(-n2nc(C(C)C)cc2NC(=O)Nc2ccc(Oc3ccnc(Nc4ccc(C(=O)NCCN5CCOCC5)cc4OC)n3)c3ccccc23)cc1 [Example 38, 4-((4-((4-(3-(3-isopropyl-1-(4-methoxyphenyl)-1H-pyrazol-5-yl)ureido)naphthalen-1-yl)oxy)pyrimidin-2-yl)amino)-3-methoxy-N-(2-morpholinoethyl)benzamide] | > 13000 nM | 20.2 nM | 60.6 nM | 9 nM | −ve (−ve and +ve indicate that the value is below and above respectively, the no significant effect threshold, defined as 30% inhibition at 1 μg/mL at the time point indicated) | −ve (−ve and +ve indicate that the value is below and above respectively, the no significant effect threshold, defined as 30% inhibition at 1 μg/mL at the time point indicated) | 54 nM | 35.7 nM
7 | COCCOc1cccc(-n2nc(C(C)(C)C)cc2NC(=O)Nc2ccc(Oc3ccnc(Nc4cc(OC)cc(C(=O)NCCN5CCOCC5)c4)n3)c3ccccc23)c1 [Example 55, 3-((4-((4-(3-(3-(tert-butyl)-1-(3-(2-methoxyethoxy)phenyl)-1H-pyrazol-5-yl)ureido)naphthalen-1-yl)oxy)pyrimidin-2-yl)amino)-5-methoxy-N-(2-morpholinoethyl)benzamide] | 281 nM | 3.3 nM | 2.1 nM | 3 nM | −ve (−ve and +ve indicate that the value is below and above respectively, the no significant effect threshold, defined as 30% inhibition at 1 μg/mL at the time point indicated) | −ve (−ve and +ve indicate that the value is below and above respectively, the no significant effect threshold, defined as 30% inhibition at 1 μg/mL at the time point indicated) | 4 nM | 5.8 nM
8 | COCCNC(=O)c1cc(Nc2nccc(Oc3ccc(NC(=O)Nc4cc(C(C)(C)C)nn4-c4ccc(C)cc4)c4ccccc34)n2)cc(OC)c1 [Example 67, 3-((4-((4-(3-(3-(tert-butyl)-1-(p-tolyl)-1H-pyrazol-5-yl)ureido)naphthalen-1-yl)oxy)pyrimidin-2-yl)amino)-5-methoxy-N-(2-methoxyethyl)benzamide] | 452 nM | 0.1 nM | 1 nM | 4 nM | −ve (−ve and +ve indicate that the value is below and above respectively, the no significant effect threshold, defined as 30% inhibition at 1 μg/mL at the time point indicated) | −ve (−ve and +ve indicate that the value is below and above respectively, the no significant effect threshold, defined as 30% inhibition at 1 μg/mL at the time point indicated) | 40 nM | 140 nM
9 | COc1ccc(C(=O)NCCO)cc1Nc1nccc(Oc2ccc(NC(=O)Nc3cc(C(C)(C)C)nn3-c3ccc(C)cc3)c3ccccc23)n1 [Example 33, 3-((4-((4-(3-(3-(tert-butyl)-1-(p-tolyl)-1H-pyrazol-5-yl)ureido)naphthalen-1-yl)oxy)pyrimidin-2-yl)amino)-N-(2-hydroxyethyl)-4-methoxybenzamide] | > 14300 nM | 1.5 nM | 4.2 nM | 3 nM | −ve (−ve and +ve indicate that the value is below and above respectively, the no significant effect threshold, defined as 30% inhibition at 1 μg/mL at the time point indicated) | −ve (−ve and +ve indicate that the value is below and above respectively, the no significant effect threshold, defined as 30% inhibition at 1 μg/mL at the time point indicated) | 98 nM | 143 nM
